pKi: −log10 of the molar value.
How the values were obtained:
[1] = target: Carbonic anhydrase 5B, mitochondrial (Homo sapiens) (UniProt Q9Y2D0)
Description: Inhibition of human recombinant carbonic anhydrase 5B by stopped flow CO2 hydration method

[2] = target: Carbonic anhydrase 2 (Homo sapiens) (UniProt P00918)
[3] = target: Carbonic anhydrase 1 (Homo sapiens) (UniProt P00915)
Carbonic anhydrase 1 (Homo sapiens), sequence (P00915 2-261 limits assumed): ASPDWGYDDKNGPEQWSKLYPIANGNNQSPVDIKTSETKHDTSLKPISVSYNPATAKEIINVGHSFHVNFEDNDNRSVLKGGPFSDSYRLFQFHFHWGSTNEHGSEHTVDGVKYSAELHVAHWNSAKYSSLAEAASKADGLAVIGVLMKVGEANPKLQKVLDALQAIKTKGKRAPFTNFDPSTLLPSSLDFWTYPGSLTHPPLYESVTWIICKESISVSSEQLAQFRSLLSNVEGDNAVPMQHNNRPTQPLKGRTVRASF

Carbonic anhydrase 5B, mitochondrial (Homo sapiens), sequence (Q9Y2D0 whole entry): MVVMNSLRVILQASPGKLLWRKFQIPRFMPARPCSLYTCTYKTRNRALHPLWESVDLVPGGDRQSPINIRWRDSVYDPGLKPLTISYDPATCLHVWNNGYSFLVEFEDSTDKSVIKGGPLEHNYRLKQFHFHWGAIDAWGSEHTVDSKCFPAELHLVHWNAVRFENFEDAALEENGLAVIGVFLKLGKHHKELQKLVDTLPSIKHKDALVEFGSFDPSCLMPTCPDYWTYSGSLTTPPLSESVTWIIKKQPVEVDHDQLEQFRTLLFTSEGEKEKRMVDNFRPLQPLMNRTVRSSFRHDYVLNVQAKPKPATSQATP

| pKi [1] | Ki [2] [µM] | Ki [3] [µM] | SMILES |
| --- | --- | --- | --- |
| 7.07 | 11.4 | 10.5 | O=C(Cc1ccc(O)c(Cl)c1)NCc1ccccc1 |
| 7.01 | 7.5 | 284 | COC(=O)/C=C/C(=O)O |
| 6.98 | 8.7 | 430 | OCCc1ccc(O)cc1 |
| 7.15 | 230 | 307 | COc1cc(C[C@@H](C)[C@H](C)Cc2ccc(O)c(OC)c2)ccc1O |
| 7.10 | 12.1 | 354 | COc1cc([C@@H]2[C@@H](C)[C@@H](C)[C@@H]2c2ccc(O)c(OC)c2)ccc1O |
| 7.15 | 9.6 | 10.5 | COc1cc(/C=C2\N=C(N)NC2=O)ccc1O |
| 7.04 | 9.8 | 9.6 | O=C(Cc1ccc(O)c(Cl)c1)NCCc1ccccc1 |
| 7.16 | 11.7 | 368 | COc1cc([C@@H]2[C@@H](C)[C@H](C)[C@H]2c2ccc(O)c(OC)c2)ccc1O |
| 6.97 | 10.3 | 309 | O=C(O)Cc1ccc(O)cc1 |
| 7.05 | 10.5 | 395 | O=C(O)/C=C/C(=O)O |
| 7.08 | 10.4 | 158 | COCCNC(=O)Cc1ccc(O)c(Cl)c1 |
| 7.09 | 9.4 | 10.7 | CCCCNC(=O)Cc1ccc(O)c(Cl)c1 |
